≈ marks a conversion by molar mass, not a printed value. Calls of active or inactive are those of the source. The calls are words filed in the database; no cut-off is given here.
Columns and labels:
[1] = system: Staphylococcus aureus; assay: Bactericidal activity against methicillin-resistant Staphylococcus aureus JCSC 4469 measured after 24 hrs by sub-culturing; type: functional; conditions: JCSC 4469, 24 h
[2] = system: Staphylococcus aureus; assay: Antibacterial activity against methicillin-resistant Staphylococcus aureus JCSC 4744 incubated overnight by CLSI protocol based microdilution assay; type: functional
[3] = system: Escherichia coli; assay: Antibacterial activity against Escherichia coli ATCC 8739 incubated overnight by CLSI protocol based microdilution assay; type: functional
[4] = system: Bacillus cereus; assay: Bactericidal activity against Bacillus cereus CMCC 63302 measured after 24 hrs by sub-culturing; type: functional; conditions: CMCC 63302, 24 h
[5] = system: Staphylococcus aureus; assay: Bactericidal activity against methicillin-resistant Staphylococcus aureus JCSC 4744 assessed as reduction in cell survival by measuring colony forming units at MIC measured within 4 hrs by time-kill assay; type: functional
[6] = system: Staphylococcus aureus; assay: Induction of cell lysis in methicillin-resistant Staphylococcus aureus JCSC 4744 assessed as formation of membrane fissures at 8 fold MIC after 4 hrs by scanning electron microscopy; type: functional, organism-based
[7] = system: Staphylococcus aureus; assay: Bactericidal activity against methicillin-resistant Staphylococcus aureus JCSC 4744 measured after 24 hrs by sub-culturing; type: functional; conditions: JCSC 4744, 24 h
[8] = system: Staphylococcus aureus; assay: Induction of cell lysis in methicillin-resistant Staphylococcus aureus JCSC 4744 assessed as formation of membrane disruption at 8 fold MIC after 4 hrs by scanning electron microscopy; type: functional, organism-based
[9] = system: Staphylococcus aureus; assay: Bactericidal activity against methicillin-resistant Staphylococcus aureus JCSC 4744 assessed as reduction in cell survival by measuring colony forming units at MIC measured within 4 hrs by time-kill assay relative to control; type: functional
[10] = system: Staphylococcus aureus; assay: Bactericidal activity against methicillin-resistant Staphylococcus aureus JCSC 4744 assessed as reduction in cell survival by measuring colony forming units at MIC after 24 hrs by time-kill assay relative to control; type: functional
[11] = system: Bacillus cereus; assay: Antibacterial activity against Bacillus cereus CMCC 63302 incubated overnight by CLSI protocol based microdilution assay; type: functional
[12] = system: Staphylococcus aureus; assay: Antibacterial activity against Staphylococcus aureus CMCC 26003 incubated overnight by CLSI protocol based microdilution assay
[13] = system: Staphylococcus aureus; assay: Antibacterial activity against methicillin-resistant Staphylococcus aureus JCSC 4469 incubated overnight by CLSI protocol based microdilution assay; type: functional
[14] = system: Staphylococcus aureus; assay: Disruption of membrane integrity in methicillin-reisitant Staphylococcus aureus JCSC 4744 measured after 4 hrs by SYTOX-greeen-based fluorescence assay; type: functional, organism-based
[15] = system: Staphylococcus aureus; assay: Induction of cytoplasmic membrane depolarization in methicillin-resistant Staphylococcus aureus JCSC 4744 at 0.5 to 8 fold MIC by DiSC3-5 dye-based fluorescence assay; type: functional, organism-based
[16] = system: Staphylococcus aureus; assay: Bactericidal activity against Staphylococcus aureus CMCC 26003 measured after 24 hrs by sub-culturing; conditions: CMCC 26003, 24 h
[17] = system: Staphylococcus aureus; assay: Bactericidal activity against methicillin-resistant Staphylococcus aureus JCSC 4744 assessed as reduction in cell survival at 8 fold MIC measured after 24 hrs by time-kill assay; type: functional, organism-based
[18] = system: Staphylococcus aureus; assay: Disruption of membrane integrity in methicillin-reisitant Staphylococcus aureus JCSC 4744 at 10 ug/ml measured within 2 mins by SYTOX-greeen-based fluorescence assay; type: functional, organism-based

SMILES	MBC [1]	MIC [2]	MIC [3]	MBC [4]	Activity [5]	Activity [6]	MBC [7]	Activity [8]	inhibition (INH) [9]	inhibition (INH) [10]	MIC [11]	MIC [12]	MIC [13]	Activity [14]	Activity [15]	MBC [16]	Activity [17]	Activity [18]
COC1=C(C(=O)CC(C)C)C(=O)C(O)C1(C)C (centres undefined)	6.25 µg/mL (≈ 26 µM)	1.56 µg/mL (≈ 6.49 µM)	> 100 µg/mL	25 µg/mL (≈ 104 µM)	2 log10CFU/ml	Active	3.12 µg/mL (≈ 13 µM)	Active	99%	100%	12.5 µg/mL (≈ 52 µM)	3.12 µg/mL (≈ 13 µM)	3.12 µg/mL (≈ 13 µM)	Active	Active	6.25 µg/mL (≈ 26 µM)		
COc1cc(O)c(C(=O)CC(C)C)c2c1[C@]1(O)C(O)=C(C(=O)C(C)C)C(=O)C[C@]1(OC)O2	6.25 µg/mL (≈ 13.9 µM)	3.12 µg/mL (≈ 6.96 µM)	> 100 µg/mL	50 µg/mL (≈ 111 µM)	2 log10CFU/ml	Active	6.25 µg/mL (≈ 13.9 µM)	Active	99%	100%	25 µg/mL (≈ 55.7 µM)	25 µg/mL (≈ 55.7 µM)	3.12 µg/mL (≈ 6.96 µM)	Active	Active	50 µg/mL (≈ 111 µM)	Active	
CC[C@H](C)[C@H](NC(=O)CN)C(=O)NCC(=O)N[C@@H](C)C(=O)N[C@H](C(=O)N[C@@H](CC(C)C)C(=O)N[C@@H](CCCCN)C(=O)N[C@H](C(=O)N[C@@H](CC(C)C)C(=O)N[C@H](C(=O)N[C@H](C(=O)NCC(=O)N[C@@H](CC(C)C)C(=O)N1CCC[C@H]1C(=O)N[C@@H](C)C(=O)N[C@@H](CC(C)C)C(=O)N[C@H](C(=O)N[C@@H](CO)C(=O)N[C@@H](Cc1c[nH]c2ccccc12)C(=O)N[C@H](C(=O)N[C@@H](CCCCN)C(=O)N[C@@H](CCCNC(=N)N)C(=O)N[C@@H](CCCCN)C(=O)N[C@@H](CCCNC(=N)N)C(=O)N[C@@H](CCC(N)=O)C(=O)N[C@@H](CCC(N)=O)C(N)=O)[C@@H](C)CC)[C@@H](C)CC)[C@@H](C)O)[C@@H](C)O)C(C)C)C(C)C																		Active
CN[C@H](CC(C)C)C(=O)N[C@H]1C(=O)N[C@@H](CC(N)=O)C(=O)N[C@H]2C(=O)N[C@H]3C(=O)N[C@H](C(=O)N[C@H](C(=O)O)c4cc(O)cc(O)c4-c4cc3ccc4O)[C@H](O)c3ccc(c(Cl)c3)Oc3cc2cc(c3O[C@@H]2O[C@H](CO)[C@@H](O)[C@H](O)[C@H]2O[C@H]2C[C@](C)(N)[C@H](O)[C@H](C)O2)Oc2ccc(cc2Cl)[C@H]1O [VANCOMYCIN]	2.5 µg/mL (≈ 1.73 µM)	0.78 µg/mL (≈ 0.538 µM)	50 µg/mL (≈ 34.5 µM)		2 log10CFU/ml		2.5 µg/mL (≈ 1.73 µM)		99%		50 µg/mL (≈ 34.5 µM)	1.56 µg/mL (≈ 1.08 µM)	0.78 µg/mL (≈ 0.538 µM)			2.5 µg/mL (≈ 1.73 µM)		
